The values below come from patent EP0908457B1, “3-(1,2-benzisothiazol- and isoxazol-5-Y1)-2,4(1H,3H)-pyrimidinedione or thione and 3-(1,2-benzisothiazol- and isoxazol-5-y1)-4(3H)-pyrimidinone or thione herbicidal agents” (BASF AKTIENGESELLSCHAFT, priority 1997, dated 1999).

Data set [1] has as its system Cyperus serotinus, Rottb. As to the kind of experiment: Preemergence weed control under flooded paddy conditions, CYPSE (Flatsedge). On herbicidal effect rating, CYPSE: meaning of each grade not given here. Type of data set: in vivo. To be noted: preemergence weeds; for herbicidal effect rating, CYPSE: rated three to four weeks after treatment; for CYPSE: herbicidal effect rating 0-9, three to four weeks after treatment.
The subject of data set [2] is Oryza sativa, (L.) Tebonnet. As to the kind of experiment: Rice tolerance to post-transplant applications under flooded paddy conditions (Example 187), ORYSAT (Rice, Tebonnet). To be noted: for herbicidal effect rating ORYSAT: rated three to four weeks after treatment; for ORYSAT: herbicidal effect rating 0-9, three to four weeks after treatment.
The test system of data set [3] is Cyperus iria. The data set is described as follows: Preemergence weed control under flooded paddy conditions, CYPIR (Rice Flatsedge). On herbicidal effect rating, CYPIR: meaning of each grade not given here. Format: in vivo. To be noted: preemergence weeds, flooded paddy; for herbicidal effect rating, CYPIR: rated three to four weeks after treatment; for CYPIR: herbicidal effect rating 0-9, three to four weeks after treatment.
Data set [4] concerns Sagittaria pygmaea, L. The data set is described as follows: Preemergence weed control under flooded paddy conditions, SAGPY (Arrowhead (Pygmaea)). On herbicidal effect rating, SAGPY: meaning of each grade not given here. Format: in vivo. To be noted: preemergence weeds, flooded paddy; for herbicidal effect rating, SAGPY: rated three to four weeks after treatment; for SAGPY: herbicidal effect rating 0-9, three to four weeks after treatment.
In data set [5] the test system is Echinochloa oryzoides (Ard.) Fritsch. The data set is described as follows: Preemergence weed control under flooded paddy conditions, ECHORC (Watergrass (Calif.)). On herbicidal effect rating, ECHORC: meaning of each grade not given here. Type of data set: in vivo. To be noted: preemergence weeds, flooded paddy; for herbicidal effect rating, ECHORC: rated three to four weeks after treatment; for ECHORC: herbicidal effect rating 0-9, three to four weeks after treatment.

As to `Cn1c(C(F)(F)F)cc(=O)n(-c2ccc3snc(-c4ccccc4OCC(=O)NS(=O)(=O)CCl)c3c2)c1=O` [Example 344, Acetamide, N-[(chloromethyl)sulfonyl]-2-{o-{5-[3,6-dihydro-3-methyl-2,6-dioxo-4-(trifluoromethyl)-1(2H)-pyrimidinyl]-1,2-benzisothiazol-3-yl}phenoxy}-], the “herbicidal effect rating, CYPSE” value in data set [1] (Rate 0.0320 kg/ha), in data set [1] (Rate 0.0620 kg/ha), in data set [1] (Rate 0.1250 kg/ha) and in data set [1] (Rate 0.2500 kg/ha) was 6.0 in each case. The “herbicidal effect rating ORYSAT” value in data set [2] (Rate 0.0320 kg/ha) amounted to 2.0; in data set [2] (Rate 0.0620 kg/ha), 5.0; in data set [2] (Rate 0.1250 kg/ha), 5.0; in data set [2] (Rate 0.2500 kg/ha), 9.0. Besides, the “herbicidal effect rating, CYPIR” value was found to be 6.0 in data set [3] (Rate 0.0320 kg/ha), 6.0 in data set [3] (Rate 0.0620 kg/ha), 7.0 in data set [3] (Rate 0.1250 kg/ha) and 9.0 in data set [3] (Rate 0.2500 kg/ha). Besides, the “herbicidal effect rating, SAGPY” value is reported as 0.0 in data set [4] (Rate 0.0320 kg/ha), 0.0 in data set [4] (Rate 0.0620 kg/ha), 3.0 in data set [4] (Rate 0.1250 kg/ha) and 6.0 in data set [4] (Rate 0.2500 kg/ha). For the same compound, the “herbicidal effect rating, ECHORC” value in data set [5] (Rate 0.0320 kg/ha) is on record as 4.0; in data set [5] (Rate 0.0620 kg/ha) it was 7.0; in data set [5] (Rate 0.1250 kg/ha), 7.0; in data set [5] (Rate 0.2500 kg/ha), 9.0.

As for `CC(c1ccccc1)S(=O)(=O)NC(=O)c1nsc2ccc(-n3c(=O)cc(C(F)(F)F)n(C)c3=O)cc12` (stereo not drawn) [Example 427, 1,2-Benzisothiazole-3-carboxamide, 5-[3,6-dihydro-3-methyl-2,6-dioxo-4-(trifluoromethyl)-1(2H)-pyrimidinyl]-N-[(alpha-methylbenzyl)-sulfonyl]-], the results for the CYPSE in data set [1] (0.0320 kg/ha), in data set [1] (0.0620 kg/ha) and in data set [1] (0.2500 kg/ha) were 0.0, 0.0 and 4.0, respectively. Further, the ORYSAT in data set [2] (0.0320 kg/ha) worked out at 0.0; in data set [2] (0.0620 kg/ha) it was 0.0; in data set [2] (0.1250 kg/ha), 1.0; in data set [2] (0.2500 kg/ha), 3.0. Further, the CYPIR is 7.0 in data set [3] (0.0320 kg/ha), 7.0 in data set [3] (0.0620 kg/ha), 7.0 in data set [3] (0.1250 kg/ha) and 9.0 in data set [3] (0.2500 kg/ha). Moreover, the SAGPY is 4.0 in data set [4] (0.0320 kg/ha), 5.0 in data set [4] (0.0620 kg/ha), 6.0 in data set [4] (0.1250 kg/ha) and 9.0 in data set [4] (0.2500 kg/ha). The ECHORC in data set [5] (0.0320 kg/ha) is on record as 7.0; in data set [5] (0.0620 kg/ha), 7.0; in data set [5] (0.1250 kg/ha) it was 9.0; in data set [5] (0.2500 kg/ha), 9.0.

As to `CC(Br)c1nsc2ccc(-n3c(=O)cc(C(F)(F)F)n(C)c3=O)cc12` (centres unmarked) [Example 339, 2,4(1H,3H)-Pyrimidinedione, 3-[3-(1-bromoethyl)-1,2-benzisothiazol-5-yl]-1-methyl-6-(trifluoromethyl)-], the “herbicidal effect rating, CYPSE” value in data set [1] (Rate 0.0320 kg/ha) is on record as 0.0; in data set [1] (Rate 0.0620 kg/ha), 0.0; in data set [1] (Rate 0.1250 kg/ha), 6.0; in data set [1] (Rate 0.2500 kg/ha), 9.0. Moreover, the “herbicidal effect rating ORYSAT” value in data set [2] (Rate 0.0320 kg/ha) is 5.0; in data set [2] (Rate 0.0620 kg/ha), 7.0; in data set [2] (Rate 0.1250 kg/ha), 9.0; in data set [2] (Rate 0.2500 kg/ha), 9.0. Further, the “herbicidal effect rating, CYPIR” value came out at 4.0 in data set [3] (Rate 0.0320 kg/ha), 4.0 in data set [3] (Rate 0.0620 kg/ha), 7.0 in data set [3] (Rate 0.1250 kg/ha) and 7.0 in data set [3] (Rate 0.2500 kg/ha). Also, the “herbicidal effect rating, SAGPY” value is 5.0 in data set [4] (Rate 0.0320 kg/ha), 5.0 in data set [4] (Rate 0.0620 kg/ha), 5.0 in data set [4] (Rate 0.1250 kg/ha) and 9.0 in data set [4] (Rate 0.2500 kg/ha). In addition, the “herbicidal effect rating, ECHORC” value in data set [5] (Rate 0.0320 kg/ha) came to 0.0; in data set [5] (Rate 0.0620 kg/ha), 0.0; in data set [5] (Rate 0.1250 kg/ha) it was 4.0; in data set [5] (Rate 0.2500 kg/ha), 6.0.

With `CC(Oc1ccccc1-c1nsc2ccc(-n3c(=O)cc(C(F)(F)F)n(C)c3=O)cc12)C(=O)NS(C)(=O)=O` (centres unmarked) [Example 335, Propionamide, 2-{o-{5-[3,6-dihydro-3-methyl-2,6-dioxo-4-(trifluoromethyl)-1(2H)-pyrimidinyl]-1,2-benzisothiazol-3-yl}phenoxy}-N-(methylsulfonyl)-], the “herbicidal effect rating, CYPSE” value was found to be 0.0 in data set [1] (Rate 0.0320 kg/ha), 0.0 in data set [1] (Rate 0.0620 kg/ha), 6.0 in data set [1] (Rate 0.1250 kg/ha) and 6.0 in data set [1] (Rate 0.2500 kg/ha). For the same compound, the “herbicidal effect rating ORYSAT” value in data set [2] (Rate 0.0320 kg/ha) amounted to 3.0; in data set [2] (Rate 0.0620 kg/ha) it was 4.0; in data set [2] (Rate 0.1250 kg/ha), 5.0; in data set [2] (Rate 0.2500 kg/ha) it was 7.0. The “herbicidal effect rating, CYPIR” value in data set [3] (Rate 0.0320 kg/ha) came out at 0.0; in data set [3] (Rate 0.0620 kg/ha), 0.0; in data set [3] (Rate 0.1250 kg/ha), 2.0; in data set [3] (Rate 0.2500 kg/ha) it was 2.0. Besides, the “herbicidal effect rating, SAGPY” value in data set [4] (Rate 0.0320 kg/ha) is 0.0; in data set [4] (Rate 0.0620 kg/ha), 0.0; in data set [4] (Rate 0.1250 kg/ha) it was 4.0; in data set [4] (Rate 0.2500 kg/ha), 4.0. Besides, the “herbicidal effect rating, ECHORC” value in data set [5] (Rate 0.0320 kg/ha) is recorded as 6.0; in data set [5] (Rate 0.0620 kg/ha), 7.0; in data set [5] (Rate 0.1250 kg/ha), 7.0; in data set [5] (Rate 0.2500 kg/ha), 9.0.

In the case of `Cn1c(C(F)(F)F)cc(=O)n(-c2ccc3snc(C(=O)CBr)c3c2)c1=O` [Example 337, 2,4(1H,3H)-Pyrimidinedione, 3-[3-(bromoacetyl)-1,2-benzisothiazol-5-yl]-1-methyl-6-(trifluoromethyl)-], the “herbicidal effect rating, CYPSE” value was 0.0 in data set [1] (Rate 0.0320 kg/ha), 0.0 in data set [1] (Rate 0.0620 kg/ha), 0.0 in data set [1] (Rate 0.1250 kg/ha) and 9.0 in data set [1] (Rate 0.2500 kg/ha). Further, the “herbicidal effect rating ORYSAT” value in data set [2] (Rate 0.0320 kg/ha), in data set [2] (Rate 0.0620 kg/ha), in data set [2] (Rate 0.1250 kg/ha) and in data set [2] (Rate 0.2500 kg/ha) was 3.0 throughout. Also, the “herbicidal effect rating, CYPIR” value turned out to be 0.0 in data set [3] (Rate 0.0320 kg/ha), 0.0 in data set [3] (Rate 0.0620 kg/ha), 6.0 in data set [3] (Rate 0.1250 kg/ha) and 9.0 in data set [3] (Rate 0.2500 kg/ha). The “herbicidal effect rating, SAGPY” value was found to be 0.0 in data set [4] (Rate 0.0320 kg/ha), 0.0 in data set [4] (Rate 0.0620 kg/ha), 0.0 in data set [4] (Rate 0.1250 kg/ha) and 3.0 in data set [4] (Rate 0.2500 kg/ha). Besides, the “herbicidal effect rating, ECHORC” value stood at 2.0 in data set [5] (Rate 0.0320 kg/ha), 2.0 in data set [5] (Rate 0.0620 kg/ha), 6.0 in data set [5] (Rate 0.1250 kg/ha) and 6.0 in data set [5] (Rate 0.2500 kg/ha).

With `CSc1ccc(C)cc1-c1nsc2ccc(-n3c(=O)cc(C(F)(F)F)n(C)c3=O)cc12` [Example 342, 2,4(1H,3H)-Pyrimidinedione, 1-methyl-3-{3-[6-(methylthio)-m-tolyl]-1,2-benzisothiazol-5-yl}-6-(trifluoromethyl)-], the “herbicidal effect rating, CYPSE” value in data set [1] (Rate 0.0320 kg/ha) was 0.0; in data set [1] (Rate 0.0620 kg/ha), 0.0; in data set [1] (Rate 0.1250 kg/ha), 0.0; in data set [1] (Rate 0.2500 kg/ha), 9.0. Besides, the “herbicidal effect rating ORYSAT” value in data set [2] (Rate 0.0320 kg/ha) worked out at 0.0; in data set [2] (Rate 0.0620 kg/ha), 0.0; in data set [2] (Rate 0.1250 kg/ha), 2.0; in data set [2] (Rate 0.2500 kg/ha), 3.0. Further, the “herbicidal effect rating, CYPIR” value in data set [3] (Rate 0.0320 kg/ha) is 0.0; in data set [3] (Rate 0.0620 kg/ha), 0.0; in data set [3] (Rate 0.1250 kg/ha) it was 4.0; in data set [3] (Rate 0.2500 kg/ha) it was 8.0. Also, the “herbicidal effect rating, SAGPY” value stood at 0.0 in data set [4] (Rate 0.0320 kg/ha), 0.0 in data set [4] (Rate 0.0620 kg/ha), 0.0 in data set [4] (Rate 0.1250 kg/ha) and 2.0 in data set [4] (Rate 0.2500 kg/ha). The “herbicidal effect rating, ECHORC” value is on record as 4.0 in data set [5] (Rate 0.0320 kg/ha), 4.0 in data set [5] (Rate 0.0620 kg/ha), 7.0 in data set [5] (Rate 0.1250 kg/ha) and 7.0 in data set [5] (Rate 0.2500 kg/ha).
